Results as given in patent publication US20260206761A1, “HETEROARYL-TRIAZOLE COMPOUNDS AS PESTICIDES” (Bayer Aktiengesellschaft, priority 2019, published 2026).

Experiments:
Assay type in all cases: in vivo
[1] = tested on: green peach aphid (Myzus persicae); assay: Myzus persicae oral test; settings: 120 h, application rate 4 ppm, after 5 days
Method in brief: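 Compound was dissolved at 1 part by weight in 100 parts acetone, then diluted with water to test concentration and combined with IPL41 insect medium (33%+15% sugar). A mixed aphid population fed on this through a parafilm seal, and mortality (%) was scored after 5 days.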

[2] = tested on: Rhipicephalus microplus larvae (strain Parkhurst, resistant against synthetic pyrethroids); assay: Rhipicephalus (Boophilus) microplus in-vitro contact test, larval cattle tick; settings: after 48 hours, read-out: activity (efficacy: larvae dead or moribund); for pest or weed control at 100 g/ha: application rate 1 pg/cm^2 (=100 g/ha); for pest or weed control at 500 g/ha: application rate 5 pg/cm^2 (=500 g/ha)
Method in brief: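 Acetone solutions coated onto inner walls of glass tubes by rotation (900 ppm giving 5 μg/cm^2); after evaporation, 20-50 larvae added per tube and held at 27° C., 85% relative humidity. Efficacy read after 48 h from negative geotactic behaviour; 100% = all larvae dead or moribund.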

[3] = tested on: larvae of the southern green stink bug (Nezara viridula); assay: Nezara viridula spray test; settings: 96 h, after 4 days; for mortality at 100 g/ha: application rate 100 g/ha; for mortality at 500 g/ha: application rate 500 g/ha
Method in brief: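 Compound in acetone/dimethylformamide, diluted in water with 1000 ppm alkylarylpolyglycol ether emulsifier, sprayed onto barley plants carrying stink bug larvae. Mortality (%) scored after 4 days, 100% meaning all insects killed.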

[4] = tested on: Culex quinquefasciatus strain P00; assay: Culex quinquefasciatus test (CULXFA surface treatment & contact assay); settings: 24 hours after contact, read-out: efficacy (mortality); for mortality at 4 mg/m2: surface concentration 4 mg/m^2, exposure 30 minutes; for mortality at 20 mg/m2: surface concentration 20 mg/m^2, exposure 30 minutes
Method in brief: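 Compound in acetone (2 mg/ml) with 2000 ppm rapeseed oil methyl ester, dried onto glazed tile. Adult mosquitoes exposed to the treated surface for 30 min. Percent mortality scored 24 h after contact.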

[5] = tested on: Anopheles funestus strain FUMOZ-R; assay: Anopheles funestus test (ANPHFU surface treatment & contact assay); settings: 24 hours after contact, read-out: efficacy (mortality); for mortality at 4 mg/m2: surface concentration 4 mg/m^2, exposure 30 minutes; for mortality at 20 mg/m2: surface concentration 20 mg/m^2, exposure 30 minutes
Method in brief: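 Compound dissolved in acetone at 2 mg/ml with 2000 ppm RME, pipetted onto glazed tile; acetone evaporated. Adult FUMOZ-R mosquitoes exposed to dried surface for 30 min. Percent mortality scored 24 h after contact.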

[6] = tested on: green peach aphid (Myzus persicae); assay: Myzus persicae spray test; settings: 120 h, after 5 days; for mortality at 100 g/ha: application rate 100 g/ha; for mortality at 500 g/ha: application rate 500 g/ha
Method in brief: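 Chinese cabbage leaf disks carrying all instars of M. persicae sprayed with compound in acetone/DMF, diluted in water with 1000 ppm alkylarylpolyglycol ether emulsifier. Percent mortality scored after 5 days (100% = all aphids killed).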

[7] = tested on: adult brown dog ticks (Rhipicephalus sanguineus); assay: Rhipicephalus sanguineus in-vitro contact test, adult brown dog ticks; settings: after 48 hours, read-out: activity (efficacy: ticks dead or moribund); for pest or weed control at 100 g/ha: application rate 1 pg/cm^2 (=100 g/ha); for pest or weed control at 5 µg/cm2, 500 g/ha: application rate 5 μg/cm^2 (=500 g/ha)
Method in brief: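 Acetone solution (900 ppm giving 5 μg/cm²) coated on inner walls of glass tubes; after drying, 5-10 adult ticks added and held at room temperature 48 h. Ticks then placed on 45-50 °C plate ≤5 min; those unable to climb away scored dead/moribund, efficacy as % affected.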

Row | SMILES | mortality at 4 ppm [1] [%] | pest or weed control at 100 g/ha [2] [%] | pest or weed control at 500 g/ha [2] [%] | mortality at 100 g/ha [3] [%] | mortality at 500 g/ha [3] [%] | mortality at 4 mg/m2 [4] [%] | mortality at 20 mg/m2 [4] [%] | mortality at 4 mg/m2 [5] [%] | mortality at 20 mg/m2 [5] [%] | mortality at 100 g/ha [6] [%] | pest or weed control at 100 g/ha [7] [%] | pest or weed control at 5 µg/cm2, 500 g/ha [7] [%] | mortality at 500 g/ha [6] [%]
1 | C[C@H](NC(=O)c1cc(Cl)cc([S+]([O-])C(F)F)c1)c1ncnn1-c1ccc(C#N)cn1 (stereo partly drawn) [II-18, 3-chloro-N-{(1S)-1-[1-(5-cyanopyridin-2-yl)-1H-1,2,4-triazol-5-yl]ethyl}-5-[(difluoro-methyl)sulfinyl]benzamide] | 100 | 100 | 100 | 100 | 100 | 80 to 100 | 80 to 100 | – | – | – | – | – | –
2 | CC(C)c1nc([C@H](C)NC(=O)c2cc(OC(F)(F)F)cc(C3CC3)c2)n(-c2ccc(C#N)cn2)n1 [I-23] | – | 100 | 100 | – | – | – | – | 80 to 100 | 80 to 100 | 90 | 100 | 100 | –
3 | C[C@H](NC(=O)c1cc(C2CC2)cc(C(F)(F)F)c1)c1ncnn1-c1ccc(Cl)cn1 [II-27] | – | 100 | 100 | 100 | 100 | 80 to 100 | 80 to 100 | 80 to 100 | – | – | 100 | 100 | –
4 | CC(NC(=O)c1cc(C(F)(F)F)cc(S(C)(=O)=O)c1)c1nc(Cl)nn1-c1ncccn1 (centres unmarked) [I-30] | 100 | 100 | 100 | 100 | – | – | – | 80 to 100 | 80 to 100 | 90 | 100 | 100 | –
5 | C[C@H](NC(=O)c1cc(Cl)cc(S(=O)(=O)C(F)F)c1)c1ncnn1-c1ccc(C#N)cn1 [II-17] | 100 | 100 | 100 | – | 100 | 80 to 100 | 80 to 100 | 80 to 100 | – | – | – | – | –
6 | C[C@H](NC(=O)c1cc(Cl)cc(S(=O)(=O)C(F)(F)F)c1)c1ncnn1-c1ncc(OC(F)F)cn1 [II-43] | 100 | 100 | 100 | 100 | – | 80 to 100 | – | – | – | – | – | – | –
7 | C[C@H](NC(=O)c1cc(OC(F)(F)F)cc(C2CC2)c1)c1ncnn1-c1ccccn1 [II-22] | 100 | 100 | 100 | – | 100 | – | 80 to 100 | – | – | – | – | – | 90
8 | C[C@H](NC(=O)c1cc(C2CC2)cc(C(F)(F)F)c1)c1ncnn1-c1ccc(C#N)cn1 [II-26] | 100 | 100 | 100 | 100 | 100 | – | – | – | – | 90 | 100 | 100 | 100
9 | C[C@H](NC(=O)c1cc(C#N)cc(S(C)(=O)=O)c1)c1ncnn1-c1ccc(Cl)cn1 [II-29] | 100 | 100 | 100 | 100 | 100 | 80 to 100 | – | – | – | 90 | 80 | 100 | 100
10 | C[C@H](NC(=O)c1cc(Cl)cc(S(=O)(=O)C2CC2)c1)c1nc(C2CC2)nn1-c1ncc(Cl)cn1 [I-25] | 100 | 100 | 100 | 100 | – | 80 to 100 | 80 to 100 | – | – | 100 | – | – | –
11 | C[C@H](NC(=O)c1cc(C#N)cc(C2CC2)c1)c1ncnn1-c1ncccn1 [II-54] | 100 | 90 | 80 | 100 | – | – | – | – | 80 to 100 | 100 | 100 | – | –
